According to patent US20230339851A1, “CXCR6 SULFONAMIDE COMPOUNDS” (CHEMOCENTRYX, INC., priority 2022, published 2023):

Molecular target: T1, human CXCR6 (Homo sapiens, UniProt O00574)
T1 construct: expressed in transfected cells
Test: Radioligand Binding Assay (125I-CXCL16 displacement)
Conditions: L1.2 cells stably transfected with human CXCR6 cDNA, 0.1 nM 125I-CXCL16, 4° C., three-hour incubation; read-out: Potency (IC50)
How it was run: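 Displacement of 0.1 nM 125I-CXCL16 from human CXCR6 stably expressed in L1.2 cells was measured after a 3 h, 4 °C incubation in HBSS with 0.1% BSA. Filter-bound cpm were counted, and IC50 values came from a 3-parameter nonlinear fit.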

T1 sequence (O00574 whole entry): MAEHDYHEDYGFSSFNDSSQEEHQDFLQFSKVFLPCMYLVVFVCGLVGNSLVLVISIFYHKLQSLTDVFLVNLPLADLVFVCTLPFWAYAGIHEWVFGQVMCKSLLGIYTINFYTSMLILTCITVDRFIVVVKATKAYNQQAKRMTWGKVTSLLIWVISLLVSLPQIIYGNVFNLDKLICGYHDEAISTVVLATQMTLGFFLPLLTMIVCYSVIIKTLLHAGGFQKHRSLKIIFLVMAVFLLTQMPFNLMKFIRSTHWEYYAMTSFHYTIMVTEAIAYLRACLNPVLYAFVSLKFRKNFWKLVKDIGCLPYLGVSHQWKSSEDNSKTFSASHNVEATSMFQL

Row | IC50 | Compound
1 | ≤ 0.2 µM | CCOc1cc(NC(=O)C(C(=O)O)C2CCCCC2)ccc1S(=O)(=O)Nc1cccc(OC(F)(F)F)c1 (centres unmarked) [Example 1.484]
2 | 0.2 to 0.75 µM | CCOc1cc(NC(=O)C2CCC[C@H]2O)ccc1S(=O)(=O)Nc1cccc(OC(F)(F)F)c1 (some centres unmarked) [Example 1.468]
3 | ≤ 0.2 µM | CCOc1cc(NC(=O)C(CC)CO)ccc1S(=O)(=O)Nc1cccc(OC(F)(F)F)c1 (centres unmarked) [Example 1.418]

Second part, the molecule before the results:

Row | Compound | IC50
4 | CCOc1cc(NC(=O)[C@@H](O)C(C)C)ccc1S(=O)(=O)Nc1ccc(C)c(F)c1 [Example 1.195] | 0.2 to 0.75 µM
5 | CCOc1cc(NC(=O)[C@@H](O)C(C)C)ccc1S(=O)(=O)Nc1cccc(C(F)(F)F)c1 [Example 1.088] | ≤ 0.2 µM
6 | CCOc1cc(NC(=O)[C@@H](NC(C)=O)C(C)CC)ccc1S(=O)(=O)Nc1cccc(OC(F)(F)F)c1 (some centres unmarked) [Example 1.349] | ≤ 0.2 µM
7 | CCOc1cc(NC(=O)C(O)C(C)O)ccc1S(=O)(=O)Nc1cccc(OC(F)(F)F)c1 (centres unmarked) [Example 1.164] | 0.75 to 2 µM
8 | COc1cc(NC(=O)CC2CCCO2)ccc1S(=O)(=O)Nc1cccc(C(F)(F)F)c1 (centres unmarked) [Example 1.189] | 2 to 20 µM
